Laboratory results reported in patent US6664249B1, “Bicyclic vasopressin agonists” (Ferring BV, priority 1999, dated 2003).

test system: Brattleboro rat; assay: urine output in Brattleboro rats (model of vasopressin deficiency); format: in vivo; settings: 1 mg/kg p.o. in methylcellulose, vs control animals
Protocol: The Brattleboro rat is a recognised model for vasopressin deficiency (for a review see F D Grant, “Genetic models of vasopressin deficiency”, Exp. Physiol. 85, 203S-209S, 2000). […] Compounds of the invention were administered to Brattleboro rats (0.1-10 mg/kg p.o. in methylcellulose. Urine was collected hourly and volumes were compared with control animals. Animals had free access to food and water throughout the experiment. Representative results are given in the Table. Results for Desmopressin are given for comparison.

First: CCOC(=O)CNC(=O)NCc1ccc(C(=O)N2CCCCc3ccccc32)cc1C [Example 5, 1-(4-[N-(2-Ethoxy-2-oxoethylcarbamoyl)aminomethyl]-3-methylbenzoyl)-2,3,4,5-tetrahydro-1H-1-benzazepine]
Second: Cc1cc(C(=O)N2CCCCc3ccccc32)ccc1CNC(=O)NCC(=O)O [Example 6, 1-(4-[N-(Carboxymethylcarbamoyl)aminomethyl]-3-methylbenzoyl)-2,3,4,5-tetrahydro-1H-1-benzazepine]
The “% inhibition of urine output (at 1 hour)” value of the first is higher: 74% for the first, 38% for the second.

For `Cc1cc(C(=O)N2CCCCc3ccccc32)ccc1CNC(=O)NCC(=O)N1CCCCC1` [Example 25, 1-(3-methyl-4-[N-(2-(1-piperidino)-2-oxoethylcarbamoyl)aminomethyl]benzoyl)-2,3,4,5-tetrahydro-1H-1-benzazepine], the “% inhibition of urine output (at 1 hour)” value was 58%.

For `Cc1cc(C(=O)N2CCCCc3ccccc32)ccc1CNC(=O)NCC(=O)N(C)C` [Example 8, 1-(4-[N-(2-Dimethylamino-2-oxoethylcarbamoyl)aminomethyl]-3-methylbenzoyl)-2,3,4,5-tetrahydro-1H-1-benzazepine], the “% inhibition of urine output (at 1 hour)” value was 45-82%.
